This is an account of results in US6133275A, “3-phenylpyrrolidine alpha-1 adrenergic compounds” (Abbott Laboratories, priority 1998, dated 2000).

Broadly, the Ki is the dissociation constant of the complex between target and ligand, obtained from inhibition or displacement. Higher therefore signals a looser hold on the target.

Structures can show the parent of a compound that is named as a salt.

The target of test [1] is T1, α1a (Rat) (Rattus norvegicus, UniProt P43140).
T1 sequence (P43140 1-466): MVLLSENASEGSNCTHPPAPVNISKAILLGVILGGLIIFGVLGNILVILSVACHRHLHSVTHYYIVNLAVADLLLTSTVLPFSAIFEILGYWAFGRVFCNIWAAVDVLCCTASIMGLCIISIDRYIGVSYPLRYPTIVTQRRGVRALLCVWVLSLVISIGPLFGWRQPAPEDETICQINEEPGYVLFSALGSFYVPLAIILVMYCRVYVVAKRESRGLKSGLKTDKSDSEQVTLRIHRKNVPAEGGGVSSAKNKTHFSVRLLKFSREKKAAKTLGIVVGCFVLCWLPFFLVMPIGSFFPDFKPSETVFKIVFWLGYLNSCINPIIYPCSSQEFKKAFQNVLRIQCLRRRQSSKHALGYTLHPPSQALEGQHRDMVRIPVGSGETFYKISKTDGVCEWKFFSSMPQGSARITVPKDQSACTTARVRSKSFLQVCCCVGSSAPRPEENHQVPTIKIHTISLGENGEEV
As to the kind of experiment: Radioligand binding, displacement of [3H]-prazosin from cloned α1a (rat) expressed in LTK cells. The settings on record: [3H]-prazosin 0.2 nM; cloned rat α1a in LTK cell membranes; 25° C., 50 minutes. (In general: Displacement assays read how much labelled ligand stays bound in the presence of the test substance.)

In test [2] the target is T2, α1d (rat) (Rattus norvegicus, UniProt P23944).
T2 sequence (P23944 1-561): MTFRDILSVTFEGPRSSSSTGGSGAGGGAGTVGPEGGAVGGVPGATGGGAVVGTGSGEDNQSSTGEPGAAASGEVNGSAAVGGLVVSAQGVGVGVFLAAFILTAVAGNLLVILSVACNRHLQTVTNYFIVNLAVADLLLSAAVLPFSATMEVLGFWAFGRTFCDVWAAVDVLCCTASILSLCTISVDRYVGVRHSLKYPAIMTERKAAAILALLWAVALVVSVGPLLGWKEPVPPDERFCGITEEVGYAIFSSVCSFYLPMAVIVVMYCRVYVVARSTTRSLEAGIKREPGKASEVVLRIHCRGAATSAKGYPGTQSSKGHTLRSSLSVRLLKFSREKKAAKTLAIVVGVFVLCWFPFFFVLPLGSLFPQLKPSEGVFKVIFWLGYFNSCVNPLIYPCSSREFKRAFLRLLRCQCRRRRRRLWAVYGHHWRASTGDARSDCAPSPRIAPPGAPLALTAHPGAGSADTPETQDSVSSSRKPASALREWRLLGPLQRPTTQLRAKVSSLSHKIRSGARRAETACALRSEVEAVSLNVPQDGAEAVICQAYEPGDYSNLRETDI
The experiment in a line: Radioligand binding, displacement of [3H]-prazosin from cloned α1d (rat) expressed in LTK cells. To be noted: [3H]-prazosin 0.2 nM; cloned rat α1d in LTK cell membranes; 25° C., 50 minutes.

Test [3] concerns the target T3, α1a (Bovine) (Bos taurus, UniProt P18130).
T3 sequence (P18130 1-466): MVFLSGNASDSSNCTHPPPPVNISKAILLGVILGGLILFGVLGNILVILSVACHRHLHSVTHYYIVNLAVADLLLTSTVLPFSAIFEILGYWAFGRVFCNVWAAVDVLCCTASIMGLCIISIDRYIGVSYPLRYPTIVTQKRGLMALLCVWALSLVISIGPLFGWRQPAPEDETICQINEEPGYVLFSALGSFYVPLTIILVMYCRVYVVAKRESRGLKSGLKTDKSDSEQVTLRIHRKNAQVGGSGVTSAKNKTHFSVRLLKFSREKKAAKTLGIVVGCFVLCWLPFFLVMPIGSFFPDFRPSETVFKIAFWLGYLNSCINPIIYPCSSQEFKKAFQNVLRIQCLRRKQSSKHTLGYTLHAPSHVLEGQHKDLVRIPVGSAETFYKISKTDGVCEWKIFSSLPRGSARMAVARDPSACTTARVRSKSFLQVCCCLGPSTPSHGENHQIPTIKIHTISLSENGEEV
The experiment in a line: Radioligand binding, displacement of [3H]-prazosin from cloned α1a (bovine) expressed in LTK cells. To be noted: [3H]-prazosin 0.2 nM; cloned bovine α1a in LTK cell membranes; 25° C., 50 minutes.

In test [4] the target is T4, α1b (Hamster) (Mesocricetus auratus, UniProt P18841).
T4 sequence (P18841 1-515): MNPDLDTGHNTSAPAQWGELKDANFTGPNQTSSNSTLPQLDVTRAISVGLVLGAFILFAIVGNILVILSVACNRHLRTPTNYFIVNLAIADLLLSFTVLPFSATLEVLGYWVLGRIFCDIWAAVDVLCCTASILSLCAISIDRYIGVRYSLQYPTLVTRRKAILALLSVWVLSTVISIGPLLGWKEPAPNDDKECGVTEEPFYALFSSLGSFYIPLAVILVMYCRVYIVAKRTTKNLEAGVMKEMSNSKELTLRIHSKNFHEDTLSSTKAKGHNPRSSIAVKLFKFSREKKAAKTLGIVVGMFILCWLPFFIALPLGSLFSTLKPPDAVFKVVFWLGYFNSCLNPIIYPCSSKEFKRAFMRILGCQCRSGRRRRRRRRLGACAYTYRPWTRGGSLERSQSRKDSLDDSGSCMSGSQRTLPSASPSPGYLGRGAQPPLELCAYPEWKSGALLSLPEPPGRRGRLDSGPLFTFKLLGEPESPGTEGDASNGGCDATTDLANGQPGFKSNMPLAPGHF
As to the kind of experiment: Radioligand binding, displacement of [3H]-prazosin from cloned α1b (hamster) expressed in LTK cells. To be noted: [3H]-prazosin 0.2 nM; cloned hamster α1b in LTK cell membranes; 25° C., 50 minutes.

Test [5] concerns BPH patients. The settings on record: cited from earlier work; for improvements in urinary flow rates and subjective symptom scores: longer term studies.

Consider `COc1ccccc1[C@H]1CCN(CCCCn2c(=O)[nH]c3c(sc4ncc(-c5ccccc5)nc43)c2=O)C1` [Example 16, (R)-8-phenyl-3-[4-[3-(2-methoxyphenyl)-1-pyrrolidinyl]butyl]pyrazino[2',3':4,5]thieno[3,2-d]pyrimidine-2,4(1H,3H)-dione, Dihydrochloride], for which the Ki in test [1] was determined as 1.61 nM; in test [2] it was 0.64 nM; in test [3], 0.09 nM; in test [4] it was 11.8 nM.
For `COc1ccccc1[C@H]1CCN(CCCCN2C(=O)c3ccccc3S2(=O)=O)C1` [Example 17, (R)-2-[4-[3-(2-methoxyphenyl)-1-pyrrolidinyl]butyl]-1,2-benzoisothiazol-3(2H)-one, 1,1-dioxide Monohydrochloride] the same measures were 0.13 nM, 0.22 nM, 0.03 nM and 1.1 nM.
`COc1ccccc1[C@H]1CCN(CCCCN2C(=O)COc3ccccc32)C1` [Example 18, (R)-4-[4-[3-(2-methoxyphenyl)-1-pyrrolidinyl]butyl]-2H-1,4-benzoxazin-3(4H)-one, Monohydrochloride]: the Ki in test [1] amounted to 0.46 nM; in test [2], 0.66 nM; in test [3] it was 0.21 nM; in test [4] it was 1.02 nM.
In the case of `COc1ccccc1[C@H]1CCN(CCCCN2C(=O)CCc3ccccc32)C1` [Example 19, (R)-3,4-dihydro-1-[4-[3-(2-methoxyphenyl)-1-pyrrolidinyl]butyl]-2(1H)-quinolinone Monohydrochloride], the Ki was found to be 0.57 nM in test [1], 0.23 nM in test [2], 0.15 nM in test [3] and 0.93 nM in test [4].
`COc1cccc([C@H]2CCN(CCn3c(=O)[nH]c4c(sc5cccnc54)c3=O)C2)c1` [Example 20, (R)-3-[2-[3-(3-methoxyphenyl)-1-pyrrolidinyl]ethyl]pyrido[2',3':4,5]thieno[3,2-d]pyrimidine-2,4(1H,3H)-dione, Dihydrochloride]: the Ki in test [1] was found to be 46.3 nM; in test [2] it was 69.4 nM; in test [3] it was 12 nM; in test [4] it was 194 nM.
For `COc1cccc([C@H]2CCN(CCCn3c(=O)[nH]c4c(sc5cccnc54)c3=O)C2)c1` [Example 21, (R)-3-[3-[3-(3-methoxyphenyl)-1-pyrrolidinyl]propyl]pyrido[2',3':4,5]thieno[3,2-d]pyrimidine-2,4(1H,3 H)-dione, Dihydrochloride] the same measures were 27.3 nM, 92.2 nM, 8 nM and 70.7 nM.
The like results for `COc1cccc([C@H]2CCN(CCCCn3c(=O)[nH]c4c(sc5cccnc54)c3=O)C2)c1` [Example 22, (R)-3-[4-[3-(3-methoxyphenyl)-1-pyrrolidinyl]butyl]pyrido[2',3':4,5]thieno[3,2-d]pyrimidine-2,4(1H,3H)-dione, Dihydrochloride] were, in that order, 5.11 nM, 11.5 nM, 1.52 nM and 18.4 nM.
The like results for `COc1cccc([C@H]2CCN(CCn3c(=O)[nH]c4c(sc5ncccc54)c3=O)C2)c1` [Example 23, (R)-3-[2-[3-(3-methoxyphenyl)-1-pyrrolidinyl]ethyl]pyrido[3',2':4,5]thieno[3,2-d]pyrimidine-2,4(1H,3H)-dione, Dihydrochloride] were, in that order, 134 nM, 86.4 nM, 27 nM and 331 nM.
Take `COc1cccc([C@H]2CCN(CCCCn3c(=O)[nH]c4c(sc5ncccc54)c3=O)C2)c1` [Example 24, (R)-3-[4-[3-(3-methoxyphenyl)-1-pyrrolidinyl]butyl]pyrido[3',2':4,5]thieno[3,2-d]pyrimidine-2,4(1H,3H)-dione, Dihydrochloride]: the Ki in test [1] was 7.37 nM; in test [2], 5.19 nM; in test [3], 2.81 nM; in test [4], 20 nM.
The like results for `COc1ccccc1[C@@H]1CCN(CCn2c(=O)[nH]c3c(sc4ccccc43)c2=O)C1` [Example 25, (S)-3-[2-[3-(2-methoxyphenyl)-1-pyrrolidinyl]ethyl]-[1]benzothieno[3,2-d]pyrimidine-2,4(1H,3H)-dione Monohydrochloride] were, in that order, 9.33 nM, 3.86 nM, 1.67 nM and 5.61 nM.
The like results for `COc1cccc([C@@H]2CCN(CCn3c(=O)[nH]c4c(sc5ccccc54)c3=O)C2)c1` [Example 26, (S)-3-[2-[3-(3-methoxyphenyl)-1-pyrrolidinyl]ethyl]-[1]benzothieno[3,2-d]pyrimidine-2,4(1H,3H)-dione, Monohydrochloride] were, in that order, 6.79 nM, 3.04 nM, 1.24 nM and 10.7 nM.
In the case of `COc1ccccc1[C@@H]1CCN(CCn2c(=O)[nH]c3c(sc4cccnc43)c2=O)C1` [Example 27, (S)-3-[2-[3-(2-methoxyphenyl)-1-pyrrolidinyl]ethyl]pyrido[2',3':4,5]thieno[3,2-d]pyrimidine-2,4(1H,3 H)-dione, Dihydrochloride], the Ki came out at 14.4 nM in test [1], 8.48 nM in test [2], 2.46 nM in test [3] and 15.7 nM in test [4].
The like results for `COc1ccccc1[C@@H]1CCN(CCCn2c(=O)[nH]c3c(sc4cccnc43)c2=O)C1` [Example 28, (S)-3-[3-[3-(2-methoxyphenyl)-1-pyrrolidinyl]propyl]pyrido[2',3':4,5]thieno[3,2-d]pyrimidine-2,4(1H,3H)-dione, Dihydrochloride] were, in that order, 25.8 nM, 27.8 nM, 10.3 nM and 88.6 nM.
For `COc1ccccc1[C@@H]1CCN(CCCCn2c(=O)[nH]c3c(sc4cccnc43)c2=O)C1` [Example 29, (S)-3-[4-[3-(2-methoxyphenyl)-1-pyrrolidinyl]butyl]pyrido[2',3':4,5]thieno[3,2-d]pyrimidine-2,4(1H,3H)-dione, Dihydrochloride], the Ki in test [1] is 1.98 nM; in test [2] it was 2.02 nM; in test [3], 0.69 nM; in test [4] it was 4.02 nM.
`COc1cc2nc(N3CCN(C(=O)C4COc5ccccc5O4)CC3)nc(N)c2cc1OC` (centres unmarked) [doxazosin]: the “Clinical efficacy in BPH” value in test [5] (BPH patients) is “Clinical efficacy of α1 antagonists in BPH has been demonstrated”. For the same molecule, the “improvements in urinary flow rates and subjective symptom scores” value in test [5] is “significant improvements in urinary flow rates and subjective symptom scores”.
In the case of `O=C(NC1CCN(CCc2c[nH]c3ccccc23)CC1)c1ccccc1` [indoramin], the “improvements in urinary flow rates and subjective symptom scores” value in test [5] is “significant improvements in urinary flow rates and subjective symptom scores”.
